The target in assay [1] is T1, Serine/threonine-protein kinase ULK2 (Homo sapiens) (UniProt Q8IYT8).
T1 sequence (whole entry): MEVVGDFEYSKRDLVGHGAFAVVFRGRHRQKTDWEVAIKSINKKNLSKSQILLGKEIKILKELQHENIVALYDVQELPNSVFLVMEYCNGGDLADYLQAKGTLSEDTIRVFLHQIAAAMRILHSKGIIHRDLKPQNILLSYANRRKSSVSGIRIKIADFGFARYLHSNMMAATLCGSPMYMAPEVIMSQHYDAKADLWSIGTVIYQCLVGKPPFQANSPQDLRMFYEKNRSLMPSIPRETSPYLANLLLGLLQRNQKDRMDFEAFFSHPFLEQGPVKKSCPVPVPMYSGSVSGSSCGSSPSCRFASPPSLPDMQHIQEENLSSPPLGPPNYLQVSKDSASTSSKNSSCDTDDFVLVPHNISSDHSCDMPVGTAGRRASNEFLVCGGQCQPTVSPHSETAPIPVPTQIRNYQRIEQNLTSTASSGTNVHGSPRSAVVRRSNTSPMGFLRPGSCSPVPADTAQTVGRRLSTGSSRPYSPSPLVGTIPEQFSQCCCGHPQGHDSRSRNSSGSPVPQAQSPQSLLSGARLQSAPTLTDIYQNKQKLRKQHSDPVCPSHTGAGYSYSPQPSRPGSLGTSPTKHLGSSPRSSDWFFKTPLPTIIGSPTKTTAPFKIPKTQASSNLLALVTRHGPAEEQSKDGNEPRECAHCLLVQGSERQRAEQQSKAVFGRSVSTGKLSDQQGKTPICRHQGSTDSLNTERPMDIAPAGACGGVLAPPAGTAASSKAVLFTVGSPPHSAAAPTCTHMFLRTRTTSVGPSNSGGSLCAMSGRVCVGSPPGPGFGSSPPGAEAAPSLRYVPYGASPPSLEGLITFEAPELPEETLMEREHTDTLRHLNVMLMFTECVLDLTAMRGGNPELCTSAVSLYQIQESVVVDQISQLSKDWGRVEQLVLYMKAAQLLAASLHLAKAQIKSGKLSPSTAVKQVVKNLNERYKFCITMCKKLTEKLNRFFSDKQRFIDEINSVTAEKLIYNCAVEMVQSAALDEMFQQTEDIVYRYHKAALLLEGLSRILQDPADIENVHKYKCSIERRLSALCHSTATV
Nature of the assay: Selectivity interaction (LanthaScreen Eu Kinase Binding Assay) EUB0001632a ULK2. The settings on record: at 10 µM.

In assay [2] the target is T2, Serine/threonine-protein kinase 17A (Homo sapiens) (UniProt Q9UEE5).
T2 sequence (whole entry): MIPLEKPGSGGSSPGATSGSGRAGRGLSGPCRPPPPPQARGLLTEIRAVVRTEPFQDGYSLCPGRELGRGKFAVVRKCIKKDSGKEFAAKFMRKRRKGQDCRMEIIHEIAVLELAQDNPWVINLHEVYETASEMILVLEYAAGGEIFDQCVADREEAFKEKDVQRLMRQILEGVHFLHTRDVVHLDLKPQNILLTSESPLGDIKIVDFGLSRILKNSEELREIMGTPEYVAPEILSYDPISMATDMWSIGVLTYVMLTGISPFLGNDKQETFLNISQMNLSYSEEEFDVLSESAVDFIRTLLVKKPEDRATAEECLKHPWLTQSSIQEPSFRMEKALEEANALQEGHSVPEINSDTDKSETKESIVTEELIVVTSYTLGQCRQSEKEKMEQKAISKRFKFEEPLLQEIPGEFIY
The settings on record: at 10 µM.

Assay [3] deals with Serine/threonine-protein kinase Chk2 (Homo sapiens) (UniProt O96017). Briefly: Selectivity interaction (KinomeScan (DiscoverX)) EUB0000666a CHEK2. The following applies: at 10 µM.
The test system of assay [4] is Receptor-type tyrosine-protein kinase FLT3 (Homo sapiens), P36888 [UNDEFINED MUTATION]. The following applies: at 10 µM.
The target in assay [5] is MAP/microtubule affinity-regulating kinase 3 (Homo sapiens) (UniProt P27448). Nature of the assay: Selectivity interaction (ActivX KiNativ screen (kinase selectivity in THP-1 cell lysates)) EUB0000639a MARK3. It counts as subcellular. The following applies: lysate, at 1 µM.
Assay [6] has as its target Serine/threonine-protein kinase tousled-like 2 (Homo sapiens) (UniProt Q86UE8). Briefly: Selectivity interaction (ActivX KiNativ screen (kinase selectivity in THP-1 cell lysates)) EUB0000639a TLK2. In kind it is subcellular. The settings on record: lysate, at 0.2 µM.
Assay [7] concerns the target Microtubule-associated serine/threonine-protein kinase 1 (Homo sapiens) (UniProt Q9Y2H9). Nature of the assay: Selectivity interaction (Ambit KINOMEscan and KiNATiv profiling in Jurkat cells) EUB0000090b MAST1. In kind it is cell-based. The settings on record: at 1 µM.
The target in assay [8] is T3, Serine/threonine-protein kinase D3 (Homo sapiens) (UniProt O94806).
T3 sequence (whole entry): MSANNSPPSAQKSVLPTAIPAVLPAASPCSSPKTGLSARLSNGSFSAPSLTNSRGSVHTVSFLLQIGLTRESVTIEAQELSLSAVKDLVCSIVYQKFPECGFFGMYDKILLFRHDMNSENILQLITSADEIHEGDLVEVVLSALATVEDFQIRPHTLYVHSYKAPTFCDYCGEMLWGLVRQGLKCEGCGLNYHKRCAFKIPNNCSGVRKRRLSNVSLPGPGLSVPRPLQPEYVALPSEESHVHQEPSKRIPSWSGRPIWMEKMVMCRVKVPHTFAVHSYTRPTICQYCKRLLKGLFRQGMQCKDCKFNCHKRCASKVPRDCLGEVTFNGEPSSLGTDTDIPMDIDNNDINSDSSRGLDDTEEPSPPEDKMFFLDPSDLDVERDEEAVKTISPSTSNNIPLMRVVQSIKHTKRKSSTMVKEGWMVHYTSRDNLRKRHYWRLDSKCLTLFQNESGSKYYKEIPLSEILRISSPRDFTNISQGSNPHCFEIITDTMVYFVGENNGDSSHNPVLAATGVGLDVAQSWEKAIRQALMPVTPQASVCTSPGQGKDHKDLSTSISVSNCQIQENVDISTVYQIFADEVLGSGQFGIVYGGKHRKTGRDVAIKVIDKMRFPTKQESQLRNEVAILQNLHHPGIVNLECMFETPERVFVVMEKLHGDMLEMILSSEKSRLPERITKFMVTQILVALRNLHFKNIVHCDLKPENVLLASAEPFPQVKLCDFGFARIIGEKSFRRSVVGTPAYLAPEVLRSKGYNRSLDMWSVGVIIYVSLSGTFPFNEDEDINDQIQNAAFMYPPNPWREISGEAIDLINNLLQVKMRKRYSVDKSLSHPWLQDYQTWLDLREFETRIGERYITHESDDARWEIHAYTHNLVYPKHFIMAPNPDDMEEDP
Briefly: Selectivity interaction (Ambit KINOMEscan and KiNATiv profiling in Jurkat cells) EUB0000090b PRKD3. It counts as cell-based. The following applies: at 1 µM.

For assay [9], the system named is Tyrosine-protein kinase ABL1 (Homo sapiens), P00519 [H396P]. Nature of the assay: Selectivity interaction (KinomeScan (DiscoverX)) EUB0000655a ABL1. The following applies: at 10 µM.
Assay [10] deals with Vasopressin V1a receptor (Homo sapiens) (UniProt P37288). Nature of the assay: Selectivity interaction (Panel of kinases, GPCRs, ion channels and transporters (enzymatic assay)) EUB0000266bCl AVPR1A.
Chain of Vasopressin V1a receptor (Homo sapiens) (P37288 whole entry, looked up): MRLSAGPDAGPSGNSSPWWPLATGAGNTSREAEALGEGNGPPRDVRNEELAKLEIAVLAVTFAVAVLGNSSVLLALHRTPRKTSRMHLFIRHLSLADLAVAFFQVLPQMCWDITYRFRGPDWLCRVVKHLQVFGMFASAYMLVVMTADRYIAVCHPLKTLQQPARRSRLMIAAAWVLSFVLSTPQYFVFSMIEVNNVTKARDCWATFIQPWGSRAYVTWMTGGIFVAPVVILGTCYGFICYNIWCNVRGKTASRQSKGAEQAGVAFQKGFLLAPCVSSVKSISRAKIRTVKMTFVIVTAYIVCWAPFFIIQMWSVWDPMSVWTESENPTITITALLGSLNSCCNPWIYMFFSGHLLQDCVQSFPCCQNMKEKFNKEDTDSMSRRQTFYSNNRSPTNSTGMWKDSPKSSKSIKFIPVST

Chain of Serine/threonine-protein kinase Chk2 (Homo sapiens) (O96017 whole entry): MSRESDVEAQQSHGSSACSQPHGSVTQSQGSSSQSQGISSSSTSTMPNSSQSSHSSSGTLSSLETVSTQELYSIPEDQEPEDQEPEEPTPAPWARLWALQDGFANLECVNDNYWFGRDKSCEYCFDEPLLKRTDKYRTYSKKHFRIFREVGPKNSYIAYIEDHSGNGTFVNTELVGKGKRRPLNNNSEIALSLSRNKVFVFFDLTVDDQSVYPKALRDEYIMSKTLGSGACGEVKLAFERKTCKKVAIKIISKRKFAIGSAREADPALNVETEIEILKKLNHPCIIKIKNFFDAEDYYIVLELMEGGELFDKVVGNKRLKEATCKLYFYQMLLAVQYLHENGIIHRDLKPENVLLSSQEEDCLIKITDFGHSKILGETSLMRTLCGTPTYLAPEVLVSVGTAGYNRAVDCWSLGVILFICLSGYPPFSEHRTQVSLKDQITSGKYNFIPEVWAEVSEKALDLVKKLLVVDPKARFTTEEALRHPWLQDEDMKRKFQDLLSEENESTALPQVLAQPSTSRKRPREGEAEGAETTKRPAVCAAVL
Chain of Serine/threonine-protein kinase tousled-like 2 (Homo sapiens) (Q86UE8 whole entry, looked up): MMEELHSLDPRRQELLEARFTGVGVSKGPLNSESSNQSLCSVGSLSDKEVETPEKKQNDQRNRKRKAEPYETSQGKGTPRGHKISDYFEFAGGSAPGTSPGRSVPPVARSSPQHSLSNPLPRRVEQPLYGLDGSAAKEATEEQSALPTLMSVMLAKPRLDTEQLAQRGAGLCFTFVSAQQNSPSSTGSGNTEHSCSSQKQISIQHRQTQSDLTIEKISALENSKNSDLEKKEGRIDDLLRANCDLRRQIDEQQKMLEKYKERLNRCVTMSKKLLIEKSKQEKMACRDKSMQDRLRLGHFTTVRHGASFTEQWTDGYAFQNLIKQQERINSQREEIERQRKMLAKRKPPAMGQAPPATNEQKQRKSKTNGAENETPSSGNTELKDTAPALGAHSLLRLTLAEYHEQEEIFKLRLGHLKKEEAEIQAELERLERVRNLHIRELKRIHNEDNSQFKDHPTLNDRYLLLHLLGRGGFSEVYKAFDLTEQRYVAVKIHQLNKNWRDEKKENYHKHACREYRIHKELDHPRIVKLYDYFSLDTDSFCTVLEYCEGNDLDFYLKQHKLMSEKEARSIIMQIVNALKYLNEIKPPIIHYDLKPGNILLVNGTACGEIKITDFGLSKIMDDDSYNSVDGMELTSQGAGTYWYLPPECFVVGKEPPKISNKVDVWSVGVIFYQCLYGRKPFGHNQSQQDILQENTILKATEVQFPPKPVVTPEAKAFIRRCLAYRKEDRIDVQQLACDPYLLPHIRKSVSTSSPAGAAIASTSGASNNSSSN
Chain of Receptor-type tyrosine-protein kinase FLT3 (Homo sapiens), P36888 [UNDEFINED MUTATION] (P36888 whole entry, looked up, change not shown): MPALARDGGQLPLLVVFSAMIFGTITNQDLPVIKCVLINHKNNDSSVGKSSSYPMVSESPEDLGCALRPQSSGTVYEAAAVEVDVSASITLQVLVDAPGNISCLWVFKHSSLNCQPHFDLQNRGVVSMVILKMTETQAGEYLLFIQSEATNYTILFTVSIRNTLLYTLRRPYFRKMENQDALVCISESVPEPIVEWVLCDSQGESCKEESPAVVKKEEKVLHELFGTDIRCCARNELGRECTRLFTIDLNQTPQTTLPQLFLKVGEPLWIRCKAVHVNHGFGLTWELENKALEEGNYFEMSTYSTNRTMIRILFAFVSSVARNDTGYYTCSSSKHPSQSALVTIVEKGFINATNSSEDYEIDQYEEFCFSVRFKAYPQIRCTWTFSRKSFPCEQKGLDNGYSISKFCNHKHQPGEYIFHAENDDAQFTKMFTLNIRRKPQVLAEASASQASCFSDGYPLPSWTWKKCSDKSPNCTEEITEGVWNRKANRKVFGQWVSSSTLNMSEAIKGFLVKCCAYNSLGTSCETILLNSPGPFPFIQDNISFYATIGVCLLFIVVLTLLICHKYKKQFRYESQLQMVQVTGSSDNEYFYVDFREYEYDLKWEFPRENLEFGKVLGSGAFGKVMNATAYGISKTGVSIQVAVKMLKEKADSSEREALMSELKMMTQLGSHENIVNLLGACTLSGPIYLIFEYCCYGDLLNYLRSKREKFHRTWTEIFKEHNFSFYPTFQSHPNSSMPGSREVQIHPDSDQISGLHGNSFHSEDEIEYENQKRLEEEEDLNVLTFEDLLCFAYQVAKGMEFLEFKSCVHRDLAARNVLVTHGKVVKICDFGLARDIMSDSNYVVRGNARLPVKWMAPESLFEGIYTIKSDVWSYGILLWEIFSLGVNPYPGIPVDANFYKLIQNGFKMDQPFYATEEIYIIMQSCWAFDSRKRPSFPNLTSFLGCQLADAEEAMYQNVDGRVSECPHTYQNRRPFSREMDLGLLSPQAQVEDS
Chain of Microtubule-associated serine/threonine-protein kinase 1 (Homo sapiens) (Q9Y2H9 whole entry, looked up): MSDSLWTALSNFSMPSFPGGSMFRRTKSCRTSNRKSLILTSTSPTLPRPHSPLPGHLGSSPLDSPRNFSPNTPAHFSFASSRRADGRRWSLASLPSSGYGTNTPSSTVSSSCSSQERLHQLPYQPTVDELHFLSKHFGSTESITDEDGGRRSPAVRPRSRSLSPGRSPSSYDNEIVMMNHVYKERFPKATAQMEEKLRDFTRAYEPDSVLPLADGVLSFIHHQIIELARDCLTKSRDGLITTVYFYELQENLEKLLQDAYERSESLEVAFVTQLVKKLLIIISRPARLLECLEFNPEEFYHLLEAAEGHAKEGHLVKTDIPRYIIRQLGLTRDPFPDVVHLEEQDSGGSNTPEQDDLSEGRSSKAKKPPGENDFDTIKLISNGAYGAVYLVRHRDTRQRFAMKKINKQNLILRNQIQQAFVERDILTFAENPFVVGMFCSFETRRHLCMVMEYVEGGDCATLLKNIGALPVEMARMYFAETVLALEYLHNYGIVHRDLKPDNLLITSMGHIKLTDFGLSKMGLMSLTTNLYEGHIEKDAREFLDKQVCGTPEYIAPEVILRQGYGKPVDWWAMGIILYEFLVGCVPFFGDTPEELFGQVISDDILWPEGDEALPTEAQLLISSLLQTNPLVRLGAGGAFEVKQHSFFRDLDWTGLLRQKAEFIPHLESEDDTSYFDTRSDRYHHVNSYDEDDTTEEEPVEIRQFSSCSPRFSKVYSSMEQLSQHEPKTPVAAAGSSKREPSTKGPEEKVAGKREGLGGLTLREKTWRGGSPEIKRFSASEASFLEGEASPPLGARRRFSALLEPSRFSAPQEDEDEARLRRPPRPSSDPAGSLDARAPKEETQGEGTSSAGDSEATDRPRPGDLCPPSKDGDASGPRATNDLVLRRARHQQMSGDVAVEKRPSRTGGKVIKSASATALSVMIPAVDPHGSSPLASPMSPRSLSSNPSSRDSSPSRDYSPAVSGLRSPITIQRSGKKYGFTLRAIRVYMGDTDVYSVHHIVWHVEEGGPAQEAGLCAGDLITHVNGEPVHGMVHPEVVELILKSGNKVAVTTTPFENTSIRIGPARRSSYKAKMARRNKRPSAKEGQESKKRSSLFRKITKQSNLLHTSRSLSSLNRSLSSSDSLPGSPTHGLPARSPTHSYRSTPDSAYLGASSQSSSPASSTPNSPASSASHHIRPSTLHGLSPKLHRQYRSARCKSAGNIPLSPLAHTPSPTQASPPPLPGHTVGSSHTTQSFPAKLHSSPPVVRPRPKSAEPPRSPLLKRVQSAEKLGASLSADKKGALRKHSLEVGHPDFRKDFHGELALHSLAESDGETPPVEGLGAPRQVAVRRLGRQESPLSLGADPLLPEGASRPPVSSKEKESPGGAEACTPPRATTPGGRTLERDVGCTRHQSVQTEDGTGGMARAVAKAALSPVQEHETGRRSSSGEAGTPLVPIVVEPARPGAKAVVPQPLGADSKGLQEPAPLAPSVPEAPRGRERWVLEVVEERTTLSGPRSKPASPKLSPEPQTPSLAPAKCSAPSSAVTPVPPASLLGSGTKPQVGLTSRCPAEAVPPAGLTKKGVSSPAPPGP
Chain of MAP/microtubule affinity-regulating kinase 3 (Homo sapiens) (P27448 whole entry, looked up): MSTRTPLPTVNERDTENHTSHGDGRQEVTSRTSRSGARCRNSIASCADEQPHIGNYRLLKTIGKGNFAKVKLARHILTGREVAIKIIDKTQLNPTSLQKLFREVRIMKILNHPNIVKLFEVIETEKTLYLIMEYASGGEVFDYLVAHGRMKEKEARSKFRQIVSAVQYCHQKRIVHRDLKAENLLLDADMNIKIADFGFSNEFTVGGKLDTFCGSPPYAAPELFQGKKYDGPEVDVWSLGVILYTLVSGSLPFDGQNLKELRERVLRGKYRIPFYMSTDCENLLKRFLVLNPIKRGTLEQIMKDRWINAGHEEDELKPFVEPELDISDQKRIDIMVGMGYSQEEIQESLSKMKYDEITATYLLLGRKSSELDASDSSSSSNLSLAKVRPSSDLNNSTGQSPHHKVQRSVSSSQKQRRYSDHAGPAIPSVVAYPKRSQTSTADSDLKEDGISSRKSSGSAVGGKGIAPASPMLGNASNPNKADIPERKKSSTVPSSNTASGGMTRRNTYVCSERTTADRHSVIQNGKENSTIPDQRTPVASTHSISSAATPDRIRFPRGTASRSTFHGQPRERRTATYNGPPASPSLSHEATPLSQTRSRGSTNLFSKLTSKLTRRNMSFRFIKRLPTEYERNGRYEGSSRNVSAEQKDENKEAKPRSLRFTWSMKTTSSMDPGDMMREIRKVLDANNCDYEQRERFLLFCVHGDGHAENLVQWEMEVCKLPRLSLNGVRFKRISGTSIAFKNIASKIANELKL

On to `Cn1cc(-n2cnc3c(NCc4nc5cc(Cl)c(Cl)cc5[nH]4)nc(N4CCOCC4)nc32)cn1`, for which the % of inhibition in assay [1] is -117%.

In turn, `CCN(CC)CCCCNc1ncc2cc(-c3cc(OC)cc(OC)c3)c(NC(=O)NC(C)(C)C)nc2n1` displayed a % of control in [2] of 100%.

As to `O=C(NOC[C@H](O)CO)c1ccc(F)c(F)c1Nc1ccc(I)cc1F`, in assay [3], the % of control was 86%.

In assay [4], `Cc1cc([C@@H](C)Nc2ccccc2C(=O)O)c2nc(N3CCOCC3)cc(=O)n2c1` [AZD-6482] yielded a % of control of 53%.

`CC[C@@H]1[C@H](F)C(=O)N[C@@H]1COc1nccc2cc(C(N)=O)c(OC)cc12` [ZIMLOVISERTIB]: the results for the % of inhibition in [5] and in assay [6] were 4.3% and 16.8%, respectively.

Take `CN(C)C/C=C/C(=O)Nc1ccc(C(=O)N2CCCC(Nc3ncc(Cl)c(-c4c[nH]c5ccccc45)n3)C2)cc1` (stereo not given): the % of control in [7] amounted to 95%; in [8] it was 33%.

Compound `CN(C)CCOc1ccc(-c2nc(-c3ccncc3)c(-c3ccc4c(c3)CC/C4=N\O)[nH]2)cc1` yielded a % of control in assay [9] of 6.9%.

For the compound `CCn1c(-c2nc3cc(C(=O)N4CCCC(N)C4)ccc3n2C)cc2ccccc21` (stereo not given), the pXC50 in assay [10] is below 4.3 M.

These data come from ChEMBL document CHEMBL5465560, “Selectivity Literature for EUbOPEN Chemogenomic Library” (2024).
